Data taken from patent US10695352B2, “Combination therapy for treating malignancies” (Celgene Corporation, priority 2015, dated 2020).
Where two headings read alike, the source gives them in different places.

Experiments:
[1] = cited from earlier work
TF1-R140Q cells [2] = test: Annexin V/7-AAD flow cytometry cell death analysis; type: cell-based; details: concurrent dose-schedule regimen; average values across dose concentrations
Method: Annexin V and 7-AAD flow cytometry analysis was performed for sequential (day 18) and concurrent (day 14) dosing schedules. Populations were normalized to DMSO+EPO and fold change of percent Annexin V+ and/or 7-AAD+ was plotted.
Cell death was analyzed via Annexin V/7-AAD flow cytometry at the end of the EPO-differentiation assay (FIGS. 4 and 9). In the sequential dose-schedule regimen, there was no induction (<2-fold) of death (AnnexinV+ and/or 7AAD+) with a single agent. In the concurrent dose-schedule regimen, azacitidine and COMPOUND 1 as single agents increased the percentage of AnnexinV+ and/or 7AAD+ cells by 3.4-fold and 3.5-fold (average values across dose concentrations), respectively.

TF-1 R140Q cells = test: Real-time growth and apoptosis (Caspase 3/7 dye) on IncuCyte Zoom; type: cell-based; details: for cell growth: COMPOUND 1 1-10 μM
Method: The TF-1 R140Q cells were pre-treated in bulk in flasks with 1 μM of QDx3 azacitidine and then plated with COMPOUND 1 concentrations of 10, 3 and 0.3 μM and Caspase 3/7 dye (obtained from Essen Biosciences) to monitor real-time growth and apoptosis on IncuCyte Zoom up to 104 hrs.
The TF-1 R140Q cells were plated with the combination of azacitidine (1 and 0.3 μM) and COMPOUND 1 (1 μM) and imaged for real-time growth and apoptosis on IncuCyte Zoom up to 104 hrs.
A real-time death analysis was performed using IncuCyte Zoom (FIGS. 5 and 6).

TF1-R140Q cells [3] = test: Hematopoietic stem cell and blast content determination (CD34, CD38, FACS); type: cell-based; details: for CD34+/CD38+ and CD34+/CD38− cell populations: end of EPO-differentiation assay; for decrease of hematopoietic progenitor cells (CD34+/CD38+): sequential treatment, COMPOUND 1 0.2 μM, azacitidine 0.1 μM, single agents or combination
Method: Flow cytometry analysis was performed for sequential and concurrent schedules. Hematopoietic progenitor cells (CD34+/CD38+) (i) and stem cells (CD34+/CD38−) (ii) populations were normalized to DMSO+EPO and plotted. Values for population percentage decreases are shown, with those in red font depicting greater than additive effect with the combination as compared to AZA or COMPOUND 1 as single agents.
Cells were blocked in 10×BSA and diluted with MACS rinsing solution to 1× concentration for 15 min (staining buffer, BD Biosciences). Supernatant was removed by spinning. 10 μl of anti-CD34 FITC and anti-CD38 APC antibodies (each in staining buffer) were added. Mouse IgG2a FITC and IgG2a APC were used as isotype controls. Cells were stained for 10 min in dark, the solution was spinned to remove supernatant, the cells were resuspended in 300 μl of staining buffer and proceed to fluorescence-activated cell sorting (FACS).
The hematopoietic stem (CD34+/CD38−) and progenitor (CD34+/CD38+) cell populations were quantified at the end of the EPO-differentiation assay (FIGS. 3 and 8). As single agents, both azacitidine and COMPOUND 1 reduced CD34+/CD38+(FIG. 3i) and CD34+/CD38− (FIG. 3ii) cell populations. […] For example, COMPOUND 1 (0.2 μM) and azacitidine (0.1 μM) as single agents decreased hematopoietic progenitor cells (CD34+/CD38+) by 32% and 7%, respectively, with sequential treatment, while the combination of azacitidine (0.1 μM) and COMPOUND 1 (0.2 μM) decreased the hematopoietic progenitor cell population by 64% (FIG. 3i).

TF1 IDH2/R140Q cells [4] = details: for RNA expression of differentiation markers KLF1 and HBG: concurrent schedule; for increase in HBG gene expression: COMPOUND 1 0.2 μM, single agents or combination
Method: FIG. 2A depicts the effect of the combination of azacitidine and COMPOUND 1 used sequentially on differentiation markers. […] Treated cells were subjected to qRT-PCR (ii) and to HBG qRT-PCR (iii). FIG. 2B depicts the effect of the combination of azacitidine and COMPOUND 1 used concurrently on differentiation markers. […] Treated cells were subjected to qRT-PCR (ii) and to HBG qRT-PCR (iii).
(§1) Measures of cell differentiation, growth and death were evaluated in an engineered TF-1 erythroleukemia cells overexpressing the IDH2/R140Q allele or the empty vector control TF-1/pLVX (Wang et al., Science 340:622-626, 2013). The cells were grown in RPMI containing HEPES and L-glutamine (Lonza 12-115F), 10% FBS (HyClone SH30088.03), Pen/Strep (Life Technologies 15070-063), G418: final concentration 500 μg/ml (Life Technologies 10131-027); GM-CSF: final concentration 5 ng/ml (R&D 215-GM-050). Only newly grown cells were used. G418 and GM-CSF were added fresh to media each time cells were passaged. Media was changed every 2-3 days by pelleting cells and resuspending in fresh media or by adding 2 ml of cells to 10 ml of fresh media. When cells were treated with a compound, the media was changed by pelleting cells to ensure proper concentration of the compound.
The RNA was isolated from cells by RNA easy kit (obtained from Qiagen). 500 ng of RNA was used to make cDNA that was subjected to real-time qPCR to detect fetal hemoglobin (HBG) and KLF-1 gene expression. The RNA easy kit was obtained from Qiagen. cDNA was made from Superscript VILO kit (Life technologies). Taqman probes were obtained from Applied Biosciences.
(§2) Measures of cell differentiation, growth and death were evaluated in TF1-R140Q cells, using an in vitro EPO differentiation assay and dose-schedule paradigms represented in FIG. 1. Cells were treated with vehicle, azacitidine alone, COMPOUND 1 alone, or the combination of azacitidine and COMPOUND 1. In the sequential schedule, cells were pre-treated with azacitidine for three days before adding COMPOUND 1. In the concurrent schedule, cells were co-treated with azacitidine and COMPOUND 1 throughout the assay.

TF1 IDH2/R140Q cells [5] = details: for hemoglobin production (coloration/hemoglobinization of cell pellets): day 14, COMPOUND 1 0.2 and 1 μM, azacitidine 0.1 and 0.3 μM; for hemoglobin production (red color of cell pellets): day 18, COMPOUND 1 0.2 μM and 1.0 μM
Source text: FIG. 1 in section A depicts COMPOUND 1 and azacitidine (AZA) combination schedule and dosing paradigms for sequential treatment of: 3 days (QDx3) of pre-treatment with azacitidine followed by treatment with the COMPOUND 1 for one week and erythropoietin (EPO)+COMPOUND 1 for another week. The cells were harvested on Day 18 and subjected to various endpoint assays for monitoring differentiation and death. FIG. 1, in section B depicts COMPOUND 1 and azacitidine combination schedule and dosing paradigms for concurrent treatment of: treatment for 7 days with the combination of azacitidine and COMPOUND 1 followed by 7 days of the treatment with azacitidine, COMPOUND 1 and EPO. The cells were harvested on Day 14 and subjected to various endpoint assays for monitoring differentiation and death.
as §1
F1/pLVX and TF1 IDH2/R140Q cells (100,000 cells/ml) were pretreated for 7 days with COMPOUND 1, azacitidine or combination thereof (medium was changed every 2 days) and washed with PBS to remove residual GM-CSF. Cells were induced to differentiate using EPO (2 unit/ml) in the presence or absence of COMPOUND 1. Induction continued for 7 days and the cell pellets were collected and imaged for hemoglobinization content (as a surrogate for differentiation into blood lineage).
as §2

[6] = oral azacitidine; cited from earlier work
[7] = sequential experiment, azacitidine 1 μM

| Structure (SMILES) | solubility ([1]; dimethylsulfoxide (DMSO)) | solubility ([1]; ethanol/water (50/50), methanol/water (50/50) and methanol) | solubility ([1]; water) | increase in percentage of AnnexinV+ and/or 7AAD+ cells (TF1-R140Q cells [2]) | cell growth (TF-1 R140Q cells; [7]) | caspase 3/7 death measure (TF-1 R140Q cells; summary, single agent, or concurrent combination) | CD34+/CD38+ and CD34+/CD38− cell populations (TF1-R140Q cells [3]) | decrease of hematopoietic progenitor cells (CD34+/CD38+) (TF1-R140Q cells [3]) | RNA expression of differentiation markers KLF1 and HBG (TF1 IDH2/R140Q cells [4]) | increase in HBG gene expression (TF1 IDH2/R140Q cells [4]; concurrent, azacitidine 1 μM) | increase in HBG gene expression (TF1 IDH2/R140Q cells [4]; sequential, azacitidine 0.3 μM) | hemoglobin production (coloration/hemoglobinization of cell pellets) (TF1 IDH2/R140Q cells [5]; concurrent dosing regimen) | time to observe increased red color of cells (haem production) post-EPO (TF1 IDH2/R140Q cells [5]; sequential schedule) | hemoglobin production (red color of cell pellets) (TF1 IDH2/R140Q cells [5]; sequential schedule) | maximum tolerated dose [6] | apoptosis (TF-1 R140Q cells; [7]) | solubility ([1]; acetone, ethanol and methyl ketone) | solubility ([1]; ethanol/water (50/50), propylene glycol and polyethylene glycol) | solubility ([1]; water, water-saturated octanol, 5% dextrose in water, N-methyl-2-pyrrolidone, normal saline and 5% Tween 80 in water) | cell death as evidenced by decreased cell pellet sizes (TF1 IDH2/R140Q cells [5]; concurrent dosing regimen, azacitidine 1 μM) |
| --- | --- | --- | --- | --- | --- | --- | --- | --- | --- | --- | --- | --- | --- | --- | --- | --- | --- | --- | --- | --- |
| Nc1ncn([C@H]2C[C@H](O)[C@@H](CO)O2)c(=O)n1 [Decitabine, 4-amino-1-(2-deoxy-β-D-erythro-pentofuranosyl)-1,3,5-triazin-2(1H)one] | soluble | slightly soluble | sparingly soluble |  |  |  |  |  |  |  |  |  |  |  |  |  |  |  |  |  |
| CC(C)(O)CNc1nc(Nc2ccnc(C(F)(F)F)c2)nc(-c2cccc(C(F)(F)F)n2)n1 [COMPOUND 1, 2-methyl-1-[(4-[6-(trifluoromethyl)pyridin-2-yl]-6-{[2-(trifluoromethyl)pyridin-4-yl]amino}-1,3,5-triazin-2-yl)amino]propan-2-ol] |  |  |  | 3.5 fold | no effect on cell growth | no effect | reduced | 32% | Dose-dependent increases | 2.5 fold | 241 fold | increased hemoglobin production upon EPO differentiation in a dose-dependent manner | 7 days | increased hemoglobin production in a dose-dependent manner |  |  |  |  |  |  |
| Nc1ncn([C@@H]2O[C@H](CO)[C@@H](O)[C@H]2O)c(=O)n1 [azacitidine, 4-amino-1-O-D-ribofuranozyl-s-triazin-2(1H)-one] | soluble |  |  | 3.4 fold | reduced growth |  | reduced | 7% | Dose-dependent increases | 7.1 fold | 92 fold | increased hemoglobin production |  | little or no effect on cell pellet color | 480 mg | increased apoptosis | insoluble | slightly soluble | sparingly soluble | cell death occurred |
